Assay results as given in patent US9833497B2, “Human originated EGF domain proteins and use of the same” (CHENGDU SOURCEBIO LIMITED-LIABILITY COMPANY, priority 2013, dated 2017).

Columns and labels:
Format in all cases: cell-based
E. coli DH5α = test: Antibacterial activity: MIC and growth curve against E. coli DH5α in 96-well plate; details: minimal inhibitory concentration against E. coli DH5α; 96-well plate, 5×10^5 CFU/mL, 37° C., judged after 8 h
How it was run: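 Log-phase DH5α (OD600 about 0.5, 37° C, 185 rpm in LB) was pelleted, resuspended in fresh LB and seeded at 5×10^5 CFU/mL with recombinant protein at 50, 25 and 12.5 μg/mL (two-fold series), in triplicate. Plates were shaken at 175 rpm, 37° C, and OD600 was read every 30 min. MIC was the lowest concentration with no growth.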

E. coli BL21 = test: MIC against Gram-negative bacteria: E. coli BL21; details: 5×10^5 CFU/mL
How it was run: (§1)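 Bacteria grown in LB at 37° C with shaking to McFarland 0.5, pelleted and resuspended in fresh LB, then seeded at 5×10^5 CFU/mL per well. Purified recombinant human EGF domain proteins were two-fold serially diluted in triplicate and plates shaken at 37° C, 175 rpm. MIC is the lowest protein concentration with no bacterial growth.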

Pseudomonas aeruginosa = test: MIC against Gram-negative bacteria: Pseudomonas aeruginosa; details: 5×10^5 CFU/mL; for MIC against P. aeruginosa: Pseudomonas aeruginosa
How it was run: as §1

Klebsiella pneumonia = test: MIC against Gram-negative bacteria: Klebsiella pneumonia; details: 5×10^5 CFU/mL; for MIC against K. pneumonia: Klebsiella pneumonia
How it was run: as §1

Enterobacter cloacae = test: MIC against Gram-negative bacteria: Enterobacter cloacae; details: 5×10^5 CFU/mL; for MIC against E. cloacae: Enterobacter cloacae
How it was run: as §1

Aeromonas hydrophila = test: MIC against Gram-negative bacteria: Aeromonas hydrophila; details: 5×10^5 CFU/mL; for MIC against A. hydrophila: Aeromonas hydrophila
How it was run: as §1

Citrobacter diversus = test: MIC against Gram-negative bacteria: Citrobacter diversus; details: 5×10^5 CFU/mL; for MIC against C. diversus: Citrobacter diversus
How it was run: as §1

Moraxella catarrhalis = test: MIC against Gram-negative bacteria: Moraxella catarrhalis; details: 5×10^5 CFU/mL; for MIC against M. catarrhalis: Moraxella catarrhalis
How it was run: as §1

Proteus mirabilis = test: MIC against Gram-negative bacteria: Proteus mirabilis; details: 5×10^5 CFU/mL; for MIC against P. mirabilis: Proteus mirabilis
How it was run: as §1

Proteus vulgaris = test: MIC against Gram-negative bacteria: Proteus vulgaris; details: 5×10^5 CFU/mL; for MIC against P. vulgaris: Proteus vulgaris
How it was run: as §1

Serratia marcescens = test: MIC against Gram-negative bacteria: Serratia marcescens; details: 5×10^5 CFU/mL; for MIC against S. marcescens: Serratia marcescens
How it was run: as §1

[1] = E. coli BL21, 10 h cultivation at 37° C.
[2] = 10 h cultivation at 37° C., two-fold serial dilution

Substance: PRT1378 (AIQTCPGDCRGRGECHDGSCVCKDGYAGEDCG; listed as Homo sapiens)
- MIC (E. coli DH5α): 50 µg/mL
- MIC against E. coli BL21 (E. coli BL21; [1]): 25 µg/mL
- MIC against P. aeruginosa (Pseudomonas aeruginosa; 10 h cultivation at 37° C.): 12.5 µg/mL
- MIC against K. pneumonia (Klebsiella pneumonia; 10 h cultivation at 37° C.): 25 µg/mL
- MIC against E. cloacae (Enterobacter cloacae; 10 h cultivation at 37° C.): 12.5 µg/mL
- MIC against A. hydrophila (Aeromonas hydrophila; 10 h cultivation at 37° C.): 12.5 µg/mL
- MIC against C. diversus (Citrobacter diversus; 10 h cultivation at 37° C.): 25 µg/mL
- MIC against M. catarrhalis (Moraxella catarrhalis; 10 h cultivation at 37° C.): 12.5 µg/mL
- MIC against P. mirabilis (Proteus mirabilis; 10 h cultivation at 37° C.): 25 µg/mL
- MIC against P. vulgaris (Proteus vulgaris; 10 h cultivation at 37° C.): 12.5 µg/mL
- MIC against S. marcescens (Serratia marcescens; 10 h cultivation at 37° C.): 25 µg/mL

Substance: PRT704 (LLSNCQQLNCQYKCTMVRNSTRCYCEDGFEITEDGRSCK; listed as Homo sapiens)
- MIC (E. coli DH5α): 50 µg/mL
- MIC E. coli BL21 (E. coli BL21; 96-well plate, 37° C., 10 h): 25 µg/mL
- MIC P. aeruginosa (Pseudomonas aeruginosa; 96-well plate, 37° C., 10 h): 50 µg/mL
- MIC K. pneumonia (Klebsiella pneumonia; 96-well plate, 37° C., 10 h): 25 µg/mL
- MIC E. cloacae (Enterobacter cloacae; 96-well plate, 37° C., 10 h): 50 µg/mL
- MIC A. hydrophila (Aeromonas hydrophila; 96-well plate, 37° C., 10 h): 50 µg/mL
- MIC C. diversus (Citrobacter diversus; 96-well plate, 37° C., 10 h): 25 µg/mL
- MIC M. catarrhalis (Moraxella catarrhalis; 96-well plate, 37° C., 10 h): 12.5 µg/mL
- MIC P. mirabilis (Proteus mirabilis; 96-well plate, 37° C., 10 h): 50 µg/mL
- MIC P. vulgaris (Proteus vulgaris; 96-well plate, 37° C., 10 h): 25 µg/mL
- MIC S. marcescens (Serratia marcescens; 96-well plate, 37° C., 10 h): 12.5 µg/mL

Substance: PRT1234 (LASGCPWMCSGRGICDAGRCVCDRGFGGPYCV; listed as Homo sapiens)
- MIC (E. coli DH5α): 25 µg/mL
- MIC against E. coli BL21 (E. coli BL21; E. coli BL21, 96-well plate, 37° C., 10 h): 50 µg/mL
- MIC against P. aeruginosa (Pseudomonas aeruginosa; 96-well plate, 37° C., 10 h): 12.5 µg/mL
- MIC against K. pneumonia (Klebsiella pneumonia; 96-well plate, 37° C., 10 h): 25 µg/mL
- MIC against E. cloacae (Enterobacter cloacae; 96-well plate, 37° C., 10 h): 50 µg/mL
- MIC against A. hydrophila (Aeromonas hydrophila; 96-well plate, 37° C., 10 h): 25 µg/mL
- MIC against C. diversus (Citrobacter diversus; 96-well plate, 37° C., 10 h): 25 µg/mL
- MIC against M. catarrhalis (Moraxella catarrhalis; 96-well plate, 37° C., 10 h): 25 µg/mL
- MIC against P. mirabilis (Proteus mirabilis; 96-well plate, 37° C., 10 h): 25 µg/mL
- MIC against P. vulgaris (Proteus vulgaris; 96-well plate, 37° C., 10 h): 12.5 µg/mL
- MIC against S. marcescens (Serratia marcescens; 96-well plate, 37° C., 10 h): 25 µg/mL

Substance: PRT844 (CRCNRHSECAGVGARDHCLLCRNHTKGSHCEQCLPLFVGSAVGGGTCRP; listed as Homo sapiens)
- MIC (E. coli DH5α): 12.5 µg/mL
- MIC (μg/mL) E. coli BL21 (E. coli BL21; [1]): 25 µg/mL
- MIC (μg/mL) P. aeruginosa (Pseudomonas aeruginosa; P. aeruginosa, 10 h cultivation at 37° C.): 50 µg/mL
- MIC (μg/mL) K. pneumonia (Klebsiella pneumonia; K. pneumonia, 10 h cultivation at 37° C.): 12.5 µg/mL
- MIC (μg/mL) E. cloacae (Enterobacter cloacae; E. cloacae, 10 h cultivation at 37° C.): 50 µg/mL
- MIC (μg/mL) A. hydrophila (Aeromonas hydrophila; A. hydrophila, 10 h cultivation at 37° C.): 12.5 µg/mL
- MIC (μg/mL) C. diversus (Citrobacter diversus; C. diversus, 10 h cultivation at 37° C.): 50 µg/mL
- MIC (μg/mL) M. catarrhalis (Moraxella catarrhalis; M. catarrhalis, 10 h cultivation at 37° C.): 25 µg/mL
- MIC (μg/mL) P. mirabilis (Proteus mirabilis; P. mirabilis, 10 h cultivation at 37° C.): 12.5 µg/mL
- MIC (μg/mL) P. vulgaris (Proteus vulgaris; P. vulgaris, 10 h cultivation at 37° C.): 12.5 µg/mL
- MIC (μg/mL) S. marcescens (Serratia marcescens; S. marcescens, 10 h cultivation at 37° C.): 25 µg/mL

Substance: PRT1071 (ELDQCWEHCRNGGTCAASPSGMPTCRCPTGFTGPKCT; listed as Homo sapiens)
- MIC (E. coli DH5α): 50 µg/mL
- MIC E. coli BL21 (E. coli BL21; [2]): 25 µg/mL
- MIC P. aeruginosa (Pseudomonas aeruginosa; [2]): 12.5 µg/mL
- MIC K. pneumonia (Klebsiella pneumonia; [2]): 25 µg/mL
- MIC E. cloacae (Enterobacter cloacae; [2]): 50 µg/mL
- MIC A. hydrophila (Aeromonas hydrophila; [2]): 25 µg/mL
- MIC C. diversus (Citrobacter diversus; [2]): 12.5 µg/mL
- MIC M. catarrhalis (Moraxella catarrhalis; [2]): 50 µg/mL
- MIC P. mirabilis (Proteus mirabilis; [2]): 12.5 µg/mL
- MIC P. vulgaris (Proteus vulgaris; [2]): 50 µg/mL
- MIC S. marcescens (Serratia marcescens; [2]): 12.5 µg/mL

Substance: PRT1075 (EVNKCSRCLEGACVVNKQSGDVTCNCTDGRVAPSCL; listed as Homo sapiens)
- MIC (E. coli DH5α): 25 µg/mL
- MIC E. coli BL21 (E. coli BL21; [2]): 12.5 µg/mL
- MIC P. aeruginosa (Pseudomonas aeruginosa; [2]): 25 µg/mL
- MIC K. pneumonia (Klebsiella pneumonia; [2]): 50 µg/mL
- MIC E. cloacae (Enterobacter cloacae; [2]): 25 µg/mL
- MIC A. hydrophila (Aeromonas hydrophila; [2]): 25 µg/mL
- MIC C. diversus (Citrobacter diversus; [2]): 50 µg/mL
- MIC M. catarrhalis (Moraxella catarrhalis; [2]): 25 µg/mL
- MIC P. mirabilis (Proteus mirabilis; [2]): 50 µg/mL
- MIC P. vulgaris (Proteus vulgaris; [2]): 12.5 µg/mL
- MIC S. marcescens (Serratia marcescens; [2]): 50 µg/mL

Substance: PRT1486 (TVKSCDCLNGGSCVSDRNFSPGSGVYLCVCLPGFHGSLCE; listed as Homo sapiens)
- MIC (E. coli DH5α): 12.5 µg/mL
- MIC against E. coli BL21 (E. coli BL21; [1]): 12.5 µg/mL
- MIC against P. aeruginosa (Pseudomonas aeruginosa; 10 h cultivation at 37° C.): 25 µg/mL
- MIC against K. pneumonia (Klebsiella pneumonia; 10 h cultivation at 37° C.): 25 µg/mL
- MIC against E. cloacae (Enterobacter cloacae; 10 h cultivation at 37° C.): 12.5 µg/mL
- MIC against A. hydrophila (Aeromonas hydrophila; 10 h cultivation at 37° C.): 25 µg/mL
- MIC against C. diversus (Citrobacter diversus; 10 h cultivation at 37° C.): 12.5 µg/mL
- MIC against M. catarrhalis (Moraxella catarrhalis; 10 h cultivation at 37° C.): 25 µg/mL
- MIC against P. mirabilis (Proteus mirabilis; 10 h cultivation at 37° C.): 12.5 µg/mL
- MIC against P. vulgaris (Proteus vulgaris; 10 h cultivation at 37° C.): 12.5 µg/mL
- MIC against S. marcescens (Serratia marcescens; 10 h cultivation at 37° C.): 12.5 µg/mL
